Literature values as cited in patent US5330766A, “Sustained release pharmaceutical composition” (priority 1989, dated 1994).
Where a name gives a salt, the structure may show the parent alone. Read-outs that look alike come from different tables or passages of the source.

Columns and labels:
[1] = not given; remark: listed apart in the source

**Q.** Which “SOLUBILITY (AQUEOUS), in words” value does the source give for `CN1CCC(=C2c3ccccc3CCc3cccnc32)CC1` [Azatadine maleate] here?
**A.** very soluble

**Q.** And the pKA ([1]; first or only value given)?
**A.** 9.3

**Q.** For `CCC(C)C1(CC)C(=O)NC(=O)NC1=O` (stereo not shown) [Butabarbital sodium], which “SOLUBILITY (AQUEOUS), in words” value is on record?
**A.** freely soluble

**Q.** What about the pKA ([1]; first or only value given) of the same compound?
**A.** 7.9

**Q.** With `CC(COc1ccccc1)N(CCCl)Cc1ccccc1` (stereo not shown) [Phenoxybenzamine hydrochloride] as the compound, how does the pKA ([1]; first or only value given) read?
**A.** 4.4

**Q.** Which pKA ([1]; first or only value given, HCl) does the source give for `CC(C)(S)[C@@H](N)C(=O)O` [Penicillamine HCl] here?
**A.** 8.0

**Q.** What about the pKA ([1]; second value) of the same compound?
**A.** 10.8

**Q.** What does the source list for `OCCOCCN1CCN(C(c2ccccc2)c2ccc(Cl)cc2)CC1` (stereo not shown) [Hydroxyzine hydrochloride]?
**A.** pKA ([1]; first or only value given): 2.6; pKA ([1]; second value): 7.0

**Q.** With `Cc1onc(-c2ccccc2Cl)c1C(=O)N[C@@H]1C(=O)N2[C@@H]1SC(C)(C)[C@@H]2C(=O)O` [Cloxacillin sodium] as the compound, how does the pKA ([1]; first or only value given) read?
**A.** 2.7

**Q.** With `C=CCC1(C(C)CCC)C(=O)NC(=O)NC1=O` (stereo not shown) [Secobarbital sodium] as the compound, how does the pKA ([1]; first or only value given) read?
**A.** 7.5

**Q.** Which “SOLUBILITY (AQUEOUS), in words” value does the source give for `C[N+]12CCC(CC1)C(OC(=O)C(O)(c1ccccc1)c1ccccc1)C2` (stereo not shown) [Clidinium bromide] here?
**A.** soluble

**Q.** With `C[C@@H](Cc1ccccc1)N(C)Cc1ccccc1` [Benzphetamine hydrochloride] as the compound, how does the pKA ([1]; first or only value given) read?
**A.** 6.6

**Q.** What does the source list for `CC(C)[N+](C)(CCOC(=O)C1c2ccccc2Oc2ccccc21)C(C)C` [Propantheline bromide]?
**A.** SOLUBILITY (AQUEOUS), in words: very soluble; pKA ([1]; first or only value given): 9.0

**Q.** For `CN1CCCC1c1cccnc1` (stereo not shown) [Nicotine], which “SOLUBILITY (AQUEOUS), in words” value is on record?
**A.** soluble

**Q.** For `CN1CCC(CN2c3ccccc3Sc3ccccc32)C1` (stereo not shown) [Methdilazine HCl], which pKA ([1]; first or only value given) is on record?
**A.** 7.5

**Q.** Which pKA [1] does the source give for `CN(C)C1C(=O)C(C(N)=O)=C(O)C2(O)C(=O)C3=C(O)c4c(O)cccc4C(C)(O)C3C(O)C12` (stereo not shown) [Oxytetracycline HCl] here?
**A.** 9.1

**Q.** And the pKA ([1]; first or only value given)?
**A.** 3.3

**Q.** What about the pKA ([1]; second value) of the same compound?
**A.** 7.3

**Q.** For `COc1ccc(Cc2nccc3cc(OC)c(OC)cc23)cc1OC` [Papaverine hydrochloride], which pKA ([1]; first or only value given) is on record?
**A.** 6.4

**Q.** With `CC(C)(S)[C@@H](N)C(=O)O` [Penicillamine] as the compound, how does the pKA ([1]; first or only value given) read?
**A.** 1.8

**Q.** With `COc1cc(C(=O)NCc2ccc(OCCN(C)C)cc2)cc(OC)c1OC` [Trimethobenzamide hydrochloride] as the compound, how does the pKA ([1]; first or only value given) read?
**A.** 8.3

**Q.** For `CCNC(C)Cc1cccc(C(F)(F)F)c1` (stereo not shown) [Fenfluramine hydrochloride], which pKA ([1]; first or only value given) is on record?
**A.** 9.1

**Q.** Which pKA ([1]; first or only value given) does the source give for `COc1ccc2c3c1O[C@H]1C(=O)CC[C@H]4[C@@H](C2)N(C)CC[C@]314.O=C(O)C(O)C(O)C(=O)O` [Hydrocodone bitartrate] here?
**A.** 8.3

**Q.** With `COC(=O)C(c1ccccc1)C1CCCCN1` (stereo not shown) [Methylphenidate hydrochloride] as the compound, how does the “SOLUBILITY (AQUEOUS), in words” value read?
**A.** freely soluble

**Q.** And the pKA ([1]; first or only value given)?
**A.** 8.8

**Q.** Which “SOLUBILITY (AQUEOUS), in words” value does the source give for `O=C(O)c1ccccc1O` [Choline salicylate] here?
**A.** very soluble

**Q.** With `CCOC(=O)C1(c2ccccc2)CCN(C)CC1` [Pethidine hydrochloride] as the compound, how does the “SOLUBILITY (AQUEOUS), in words” value read?
**A.** very soluble

**Q.** Which pKA ([1]; second value) does the source give for `CO[C@@H]1[C@@H](OC(N)=O)[C@@H](O)[C@H](Oc2ccc3c(O)c(NC(=O)c4ccc(O)c(CC=C(C)C)c4)c(=O)oc3c2C)OC1(C)C` [Novobiocin Sodium] here?
**A.** 9.1

**Q.** Which pKA ([1]; first or only value given) does the source give for `COc1cc2c(c(OC)c1OC)-c1ccc(OC)c(=O)cc1[C@@H](NC(C)=O)CC2` [Colchicine] here?
**A.** 1.7

**Q.** What about the pKA ([1]; second value) of the same compound?
**A.** 12.4

**Q.** With `CCC1(CC)C(=O)NCC(C)C1=O` (stereo not shown) [Methyprylon] as the compound, how does the pKA ([1]; first or only value given) read?
**A.** 12

**Q.** Which pKA ([1]; first or only value given) does the source give for `CN(C)CCN(Cc1ccccc1)c1ccccn1` [Tripelennamine citrate] here?
**A.** 3.9

**Q.** What about the pKA ([1]; second value) of the same compound?
**A.** 9.0

**Q.** With `CN(C)CCOC(c1ccc(Cl)cc1)c1ccccn1` (stereo not shown) [Carbinoxamine maleate] as the compound, how does the pKA ([1]; first or only value given) read?
**A.** 8.1

**Q.** Which “SOLUBILITY (AQUEOUS), in words” value does the source give for `CCCC(CCC)C(=O)O[C@H]1C[C@H]2CC[C@@H](C1)[N+]2(C)C` [Anisotropine methylbromide] here?
**A.** soluble

**Q.** For `CC(C)N(CCC(C(N)=O)(c1ccccc1)c1ccccn1)C(C)C` (stereo not shown) [Disopyramide phosphate], which pKA ([1]; first or only value given) is on record?
**A.** 8.4

**Q.** Which “SOLUBILITY (AQUEOUS), in words” value does the source give for `Nc1nc2c(c(=O)[nH]1)N(C=O)C(CNc1ccc(C(=O)N[C@@H](CCC(=O)O)C(=O)O)cc1)CN2` (stereo partly shown) [Leucovorin calcium] here?
**A.** very soluble

**Q.** And the pKA [1]?
**A.** 10.4

**Q.** And the pKA ([1]; first or only value given)?
**A.** 3.1

**Q.** And the pKA ([1]; second value)?
**A.** 4.8

**Q.** For `C[C@H](CN1CCOCC1)C(C(=O)N1CCCC1)(c1ccccc1)c1ccccc1` [Dextromoramide tartrate], which pKA ([1]; first or only value given) is on record?
**A.** 7.1

**Q.** Which results are given for `CC(C)(C)NC[C@H](O)COc1nsnc1N1CCOCC1` [Timolol maleate]?
**A.** SOLUBILITY (AQUEOUS), in words: freely soluble; pKA ([1]; first or only value given): 9

**Q.** With `C[n+]1ccccc1/C=N/O` [Pralidoxime chloride] as the compound, how does the pKA ([1]; first or only value given) read?
**A.** 8

**Q.** Which “SOLUBILITY (AQUEOUS), in words” value does the source give for `C[C@H]1[C@H](c2ccccc2)OCCN1C` [Phendimetrazine tartrate] here?
**A.** freely soluble

**Q.** And the pKA ([1]; first or only value given)?
**A.** 7.6

**Q.** Which pKA ([1]; first or only value given) does the source give for `CC(N)C(O)c1ccccc1` (stereo not shown) [Phenylpropanolamine hydrochloride] here?
**A.** 9

**Q.** With `CCCCCCCCCCCCCCCC(=O)OC1C(SC)OC(C(NC(=O)C2CC(CCC)CN2C)C(C)Cl)C(O)C1O` (stereo not shown) [Clindamycin Palmitate HCl] as the compound, how does the “SOLUBILITY (AQUEOUS), in words” value read?
**A.** freely soluble

**Q.** Which pKA ([1]; first or only value given) does the source give for `CC1NCCOC1c1ccccc1` (stereo not shown) [Phenmetrazine hydrochloride] here?
**A.** 8.4

**Q.** For `O=C1NC(=O)C(c2ccccc2)(c2ccccc2)N1` [Phenytoin sodium], which “SOLUBILITY (AQUEOUS), in words” value is on record?
**A.** soluble

**Q.** With `NCCCCCC(=O)O` [Aminocaproic acid] as the compound, how does the pKA ([1]; first or only value given) read?
**A.** 4.43

**Q.** And the pKA ([1]; second value)?
**A.** 10.73

**Q.** For `CCN(CC)CC#CCOC(=O)C(O)(c1ccccc1)C1CCCCC1` (stereo not shown) [Oxybutynin hydrochloride], which pKA ([1]; first or only value given) is on record?
**A.** 6.96

**Q.** With `CCC1(C)CC(=O)NC1=O` (stereo not shown) [Ethosuximide] as the compound, how does the pKA ([1]; first or only value given) read?
**A.** 9.0

**Q.** Which pKA [1] does the source give for `NNC(=O)c1ccncc1` [Isoniazid] here?
**A.** 10.8

**Q.** And the pKA ([1]; second value)?
**A.** 3.5
